Test results taken from PubChem BioAssay (NCI).
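Five compound concentrations were applied to cells in 96-well plates for 48 hours; endpoints were derived by simple linear interpolation of the resulting dose-response curve. TGI: concentration producing complete growth inhibition.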

How the values were obtained:
Assay in all cases: DTP human tumour cell line panel, 48 h
SNB-75 CNS = tested on: SNB-75 CNS
CAKI-1 renal = tested on: CAKI-1 renal
K-562 leukemia = tested on: K-562 leukemia
NCI-H226 lung = tested on: NCI-H226 lung
SK-MEL-2 melanoma = tested on: SK-MEL-2 melanoma
CCRF-CEM leukemia = tested on: CCRF-CEM leukemia
UACC-257 melanoma = tested on: UACC-257 melanoma
UO-31 renal = tested on: UO-31 renal
LOX IMVI melanoma = tested on: LOX IMVI melanoma
RXF 393 renal = tested on: RXF 393 renal

SMILES | TGI (SNB-75 CNS) [µM] | TGI (CAKI-1 renal) [µM] | TGI (K-562 leukemia) [µM] | TGI (NCI-H226 lung) [µM] | TGI (SK-MEL-2 melanoma) [µM] | TGI (CCRF-CEM leukemia) [µM] | TGI (UACC-257 melanoma) [µM] | TGI (UO-31 renal) [µM] | TGI (LOX IMVI melanoma) [µM] | TGI (RXF 393 renal) [µM]
O=C1CCC2(CC1)Cc1ccccc1C2O (stereo not drawn) | > 100 | > 100 | > 100 | > 100 | > 100 | > 100 | > 100 | > 100 | > 100 | –
NC1=NS(=O)(=O)N=C(N)C1=Cc1ccc([N+](=O)[O-])o1 | 29.9 | – | 19.5 | 53.7 | 30.9 | 92.8 | 28.9 | 31.8 | 33.2 | 32.8
O=C1C/C(=C\O)C(=O)c2ccccc2N1 | – | > 100 | > 100 | > 100 | > 100 | > 100 | > 100 | > 100 | > 100 | > 100
C#CC(C)(C)Oc1cc(OC)c2c(=O)c3ccccc3n(C)c2c1 | 70.1 | – | 55.5 | 36.4 | 35.7 | 27.5 | 26.4 | 22.5 | – | 84.8
CCOC(=O)/C=C1\Nc2ccccc2C12CCc1c([nH]c3ccccc13)C2C(=O)OCC (stereo not drawn) | – | > 100 | > 100 | – | > 100 | > 100 | > 100 | > 100 | > 100 | > 100
CCOC(=O)C1C/C(C)=C(/C)SCCCS1 (stereo not drawn) | – | – | > 100 | > 100 | > 100 | – | > 100 | > 100 | > 100 | > 100
Cc1cnc(Cl)nc1C(C#N)c1nc2ccccc2n1C (stereo not drawn) | 69.3 | > 100 | – | > 100 | – | – | > 100 | > 100 | > 100 | > 100
O=C1CCSSCCC(=O)Nc2ccccc2N1 | – | > 100 | > 100 | > 100 | > 100 | > 100 | > 100 | > 100 | > 100 | > 100
CCCCCCCCCCCCCCCCOCC(CC(F)(F)P(=O)(O)O)OC(C)=O (stereo not drawn) | > 50 | > 50 | > 50 | > 50 | > 50 | – | > 50 | > 50 | – | –
CC1(C)CC(=O)C(/C=N/c2nc(-c3ccc(Br)cc3)cs2)=C(O)C1 | 72.8 | 63.3 | – | > 100 | 48.4 | – | 38.3 | 73.1 | 52.4 | –
CC(=O)N(C(C)=O)n1c(Cc2ccc(Cl)cc2)nn(C(C)=O)c1=O | > 100 | – | > 100 | > 100 | > 100 | > 100 | – | > 100 | > 100 | > 100
COc1ccc(Cn2nc(OCc3ccccn3)c3cc([N+](=O)[O-])ccc32)cc1 | – | > 100 | > 100 | > 100 | > 100 | > 100 | > 100 | > 100 | > 100 | > 100
O=C(C[C@@H]1NCCC[C@H]1O)Cn1cnc2cc(Br)c(Cl)cc2c1=O | 0.338 | 0.313 | 0.0727 | 0.0473 | 0.05 | > 100 | – | 0.422 | 0.0268 | 0.0814
COc1cc(C(=O)Nc2nnc(S(N)(=O)=O)s2)cc(OC)c1OC | – | > 100 | > 100 | > 100 | > 100 | – | > 100 | > 100 | > 100 | > 100
COc1cc(C2SCC(=O)N2NC(=O)c2ccc(NC(C)=O)cc2)cc(OC)c1OC (stereo not drawn) | > 100 | – | > 100 | > 100 | > 100 | – | > 100 | > 100 | – | > 100
Cc1ccc(S(=O)(=O)Nn2c(-c3ccccc3)c(C#N)c(-c3ccc([N+](=O)[O-])cc3)c(C#N)c2=O)cc1 | > 100 | > 100 | – | > 100 | > 100 | > 100 | > 100 | – | > 100 | > 100
C=CCc1c(O)c2ccccc2[nH]c1=O | > 100 | > 100 | > 100 | > 100 | – | > 100 | > 100 | > 100 | > 100 | –
C=C[C@]1(C)CC[C@]2(C)C(CC[C@@]3(C)C2C[C@H](O)[C@H](O)[C@@]3(C)O)C1 (stereo partly drawn) | > 100 | > 100 | > 100 | > 100 | > 100 | > 100 | > 100 | > 100 | > 100 | –
CC1CN=C(c2cccc(OCc3ccc(COc4cccc(C5=NCC(C)N5)c4)cc3)c2)N1 (stereo not drawn) | 91.4 | > 100 | > 100 | – | 79.7 | 66.8 | 44.8 | > 100 | 62.1 | > 100
O=C(Cn1c2ccc(Br)cc2c2nc3ccccc3nc21)NC1CCCCC1 | > 100 | > 100 | > 100 | > 100 | > 100 | – | > 100 | > 100 | > 100 | > 100
N#Cc1c(N)c(-c2ccc(Cl)cc2)c(F)c2ccccc12 | > 100 | > 100 | > 100 | > 100 | > 100 | – | > 100 | > 100 | > 100 | 58.3
c1ccc(C2=NN3CN(N2)c2ccccc2OCCCOc2ccccc23)cc1 | > 100 | – | > 100 | > 100 | > 100 | > 100 | – | > 100 | > 100 | > 100
O=C1c2cc3c(cc2CC12Cc1cc4c(cc1C2)CCC4)CCC3 | > 100 | > 100 | > 100 | – | > 100 | > 100 | > 100 | > 100 | > 100 | > 100
CCOC(=O)CCC(NC(=O)OCc1ccccc1)C(=O)NNC(=O)OC(C)(C)C (stereo not drawn) | > 100 | > 100 | > 100 | – | > 100 | > 100 | > 100 | > 100 | > 100 | > 100
COc1ccc(N2C(=O)C3c4[nH]c5ccc(C)cc5c4C4CCC(C(C)C)CC4C3C2=O)cc1 (stereo not drawn) | 74.2 | > 100 | > 100 | > 100 | > 100 | > 100 | > 100 | > 100 | > 100 | –
